# Reference: PubChem BioAssay AID2060898 (Molecular Pharmacology Branch, DTP, NCI, 2025)
# pIC50: −log10 of the molar value.
# Tested on: 616215-338-R-J1-PDC complex spheroid viability
# Experiment: Anticancer human tumor 616215-338-R-J1-PDC patient-derived colon adenocarcinoma cell line growth inhibition [RAS]
# Conditions: for pIC50: curve of first compound; for viability, T/C: stronger effect = lower value
# Outline: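 Multi-cell-type spheroids: tumor cells plus HUVEC endothelial cells and mesenchymal stem cells. RAS-pathway inhibitors were combined with targeted agents, each dosed in half-log steps down from clinical Cmax, or from 10 microM when Cmax was unknown.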
# [1] = second compound 0.000949 µM, first compound 0.0316 µM
# [2] = second compound 0.000949 µM, first compound 0.1 µM
# [3] = second compound 0.003 µM, first compound 0.0316 µM
# [4] = second compound 0.003 µM, first compound 0.1 µM
# [5] = second compound 0.00949 µM, first compound 0.0316 µM
# [6] = second compound 0.00949 µM, first compound 0.1 µM
# [7] = second compound 0.03 µM, first compound 0.0316 µM
# [8] = second compound 0.03 µM, first compound 0.1 µM
# [9] = second compound 0.0949 µM, first compound 0.0316 µM
# [10] = second compound 0.0949 µM, first compound 0.1 µM
# [11] = second compound 0.3 µM, first compound 0.0316 µM
# [12] = second compound 0.3 µM, first compound 0.1 µM
# 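Also: spheroids exposed to agents for seven days before viability readout.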
# 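For viability, T/C in this document: 100% = DMSO vehicle control viability.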
compound,measurement,setting,value
CC(C)n1nc(-c2ccc3oc(N)nc3c2)c2c(N)ncnc21 + CCn1c(-c2cc(N3CCN(C)CC3)cnc2C(C)OC)c2c3cc(ccc31)-c1csc(n1)CC(NC(=O)C1CC1C)C(=O)N1CCCC(N1)C(=O)OCC(C)(C)C2,pIC50,second compound 0.000949 µM,< 7.00
same,pIC50,second compound 0.003 µM,7.11
same,pIC50,second compound 0.00949 µM,7.37
same,pIC50,second compound 0.03 µM,> 9.50
same,pIC50,second compound 0.0949 µM,> 9.50
same,pIC50,second compound 0.3 µM,> 9.50
same,"viability, T/C","second compound 0.000949 µM, first compound 0.000316 µM",103%
same,"viability, T/C","second compound 0.000949 µM, first compound 0.001 µM",93.7%
same,"viability, T/C","second compound 0.000949 µM, first compound 0.00316 µM",110%
same,"viability, T/C","second compound 0.000949 µM, first compound 0.01 µM",116%
same,"viability, T/C",[1],118%
same,"viability, T/C",[2],63.8%
same,"viability, T/C","second compound 0.003 µM, first compound 0.000316 µM",114%
same,"viability, T/C","second compound 0.003 µM, first compound 0.001 µM",108%
same,"viability, T/C","second compound 0.003 µM, first compound 0.00316 µM",108%
same,"viability, T/C","second compound 0.003 µM, first compound 0.01 µM",103%
same,"viability, T/C",[3],86.2%
same,"viability, T/C",[4],39.2%
same,"viability, T/C","second compound 0.00949 µM, first compound 0.000316 µM",77.2%
same,"viability, T/C","second compound 0.00949 µM, first compound 0.001 µM",71.4%
same,"viability, T/C","second compound 0.00949 µM, first compound 0.00316 µM",64.5%
same,"viability, T/C","second compound 0.00949 µM, first compound 0.01 µM",78.8%
same,"viability, T/C",[5],54.8%
same,"viability, T/C",[6],36.4%
same,"viability, T/C","second compound 0.03 µM, first compound 0.000316 µM",41%
same,"viability, T/C","second compound 0.03 µM, first compound 0.001 µM",51.2%
same,"viability, T/C","second compound 0.03 µM, first compound 0.00316 µM",39.5%
same,"viability, T/C","second compound 0.03 µM, first compound 0.01 µM",37.3%
same,"viability, T/C",[7],39%
same,"viability, T/C",[8],25%
same,"viability, T/C","second compound 0.0949 µM, first compound 0.000316 µM",41%
same,"viability, T/C","second compound 0.0949 µM, first compound 0.001 µM",39.3%
same,"viability, T/C","second compound 0.0949 µM, first compound 0.00316 µM",31.8%
same,"viability, T/C","second compound 0.0949 µM, first compound 0.01 µM",30.9%
same,"viability, T/C",[9],30.9%
same,"viability, T/C",[10],21.3%
same,"viability, T/C","second compound 0.3 µM, first compound 0.000316 µM",35.9%
same,"viability, T/C","second compound 0.3 µM, first compound 0.001 µM",31.1%
same,"viability, T/C","second compound 0.3 µM, first compound 0.00316 µM",35.9%
same,"viability, T/C","second compound 0.3 µM, first compound 0.01 µM",30.1%
same,"viability, T/C",[11],27.8%
same,"viability, T/C",[12],22.8%
CC1(O)CCCC1n1c(=O)c(C(F)F)cc2cnc(NC3CCN(S(C)(=O)=O)CC3)nc21 (centres undefined) + CCn1c(-c2cc(N3CCN(C)CC3)cnc2C(C)OC)c2c3cc(ccc31)-c1csc(n1)CC(NC(=O)C1CC1C)C(=O)N1CCCC(N1)C(=O)OCC(C)(C)C2,pIC50,second compound 0.000949 µM,5.95
same,pIC50,second compound 0.003 µM,6.70
same,pIC50,second compound 0.00949 µM,7.43
same,pIC50,second compound 0.03 µM,> 7.50
same,pIC50,second compound 0.0949 µM,> 7.50
same,pIC50,second compound 0.3 µM,> 7.50
same,"viability, T/C",[1],122%
same,"viability, T/C",[2],111%
same,"viability, T/C","second compound 0.000949 µM, first compound 0.316 µM",54.4%
same,"viability, T/C","second compound 0.000949 µM, first compound 1 µM",47.8%
same,"viability, T/C","second compound 0.000949 µM, first compound 3.16 µM",46.6%
same,"viability, T/C","second compound 0.000949 µM, first compound 10 µM",2%
same,"viability, T/C",[3],113%
same,"viability, T/C",[4],65.1%
same,"viability, T/C","second compound 0.003 µM, first compound 0.316 µM",30.5%
same,"viability, T/C","second compound 0.003 µM, first compound 1 µM",36.8%
same,"viability, T/C","second compound 0.003 µM, first compound 3.16 µM",38.9%
same,"viability, T/C","second compound 0.003 µM, first compound 10 µM",4.05%
same,"viability, T/C",[5],49.9%
same,"viability, T/C",[6],51.1%
same,"viability, T/C","second compound 0.00949 µM, first compound 0.316 µM",29.7%
same,"viability, T/C","second compound 0.00949 µM, first compound 1 µM",23.9%
same,"viability, T/C","second compound 0.00949 µM, first compound 3.16 µM",31.9%
same,"viability, T/C","second compound 0.00949 µM, first compound 10 µM",2.73%
same,"viability, T/C",[7],47.4%
same,"viability, T/C",[8],28%
same,"viability, T/C","second compound 0.03 µM, first compound 0.316 µM",22.7%
same,"viability, T/C","second compound 0.03 µM, first compound 1 µM",22.2%
same,"viability, T/C","second compound 0.03 µM, first compound 3.16 µM",36.3%
same,"viability, T/C","second compound 0.03 µM, first compound 10 µM",2.37%
same,"viability, T/C",[9],35%
same,"viability, T/C",[10],27.4%
same,"viability, T/C","second compound 0.0949 µM, first compound 0.316 µM",21.3%
same,"viability, T/C","second compound 0.0949 µM, first compound 1 µM",22.1%
same,"viability, T/C","second compound 0.0949 µM, first compound 3.16 µM",28.7%
same,"viability, T/C","second compound 0.0949 µM, first compound 10 µM",2.08%
same,"viability, T/C",[11],31%
same,"viability, T/C",[12],32%
same,"viability, T/C","second compound 0.3 µM, first compound 0.316 µM",16.4%
same,"viability, T/C","second compound 0.3 µM, first compound 1 µM",30.3%
same,"viability, T/C","second compound 0.3 µM, first compound 3.16 µM",29.7%
same,"viability, T/C","second compound 0.3 µM, first compound 10 µM",4.15%
